One may read the melting point as the temperature of the solid-liquid transition.

The values that follow come from US7452894B2, “Purine derivatives as purinergic receptor antagonists” (Vernalis Research Limited, priority 2001, dated 2008).

`C[Si](C)(C)CCOCn1cnc2c(-c3ccco3)nc(Cl)nc21` gave a melting point of 105.8 to 106.2 °C.
For `C=CCNc1nc(-c2ccco2)c2ncn(COCC[Si](C)(C)C)c2n1` the value was 185.5 to 186 °C; for `CNc1nc(-c2ccco2)c2ncn(COCC[Si](C)(C)C)c2n1`, 160.1 to 160.8 °C.
For `CN(C)c1nc(-c2ccco2)c2ncn(COCC[Si](C)(C)C)c2n1` the value was 81.5 to 82.2 °C; for `C[Si](C)(C)CCOCn1cnc2c(-c3ccco3)nc(NCCO)nc21`, 125.9 to 126.4 °C.
To `COc1nc(-c2ccco2)c2ncn(COCC[Si](C)(C)C)c2n1` belongs 79.6 °C (dec.); to `OCCNc1nc(-c2ccco2)c2nc[nH]c2n1` [Example 5, N-(2-Hydroxyethyl)-6-(2-furyl)-1H-purine-2-amine], 227.1 to 228.1 °C.
Regarding `CC(C)(C)OC(=O)n1cnc2c(-c3ccco3)nc(Cl)nc21` [Example 7, tert-Butyl 2-chloro-6-(2-furyl)-9H-purine-9-carboxylate], the melting point is > 305 °C (dec.).
To `Clc1nc(-c2ccco2)c2nc[nH]c2n1` [Example 8, 2-Chloro-6-(2-furyl)-1H-purine] belongs > 303 °C (dec.); to `OC[C@H]1CCCN1c1nc(-c2ccco2)c2nc[nH]c2n1` [Example 9, (2R)-1-(6-(2-Furyl)-1H-purine-2-yl)-2-pyrrolidinemethanol], 130.9 to 131.5 °C.
The compound `CSc1nc(-c2ccco2)c2ncn(C(=O)OC(C)(C)C)c2n1` [Example 12, tert-Butyl 6-(2-furyl)-2-methylthio-9H-purine-9carboxylate] returned a melting point of 112 to 113 °C.
For `CC(C)(C)OC(=O)n1cnc2c(-c3ccco3)nc(N)nc21` [Example 14, tert-Butyl 2-amino-6-(2-furyl)-9H-purine-9-carboxylate] the value was 143.2 to 144.1 °C; for `C=CCNc1nc(-c2ccco2)c2nc[nH]c2n1` [Example 17, N-Allyl-6-(2-furyl)-1H-purine-2-amine], 158.7 to 160.1 °C.
For `CNc1nc(-c2ccco2)c2nc[nH]c2n1` [Example 18, 6-(2-Furyl)-N-methyl-1H-purine-2-amine] the value was 235 to 236 °C (dec.); for `Nc1nc(-c2ccco2)c2ncn(C(=O)NC3CCCCC3)c2n1` [Example 19, 2-Amino-N-cyclohexyl-6-(2-furyl)-9H-purine-9-carboxamide], 177.6 to 178.2 °C; for `CC(C)COC(=O)n1cnc2c(-c3ccco3)nc(N)nc21` [Example 20, 2-Methylpropyl 2-amino-6-(2-furyl)-9H-purine-9-carboxylate], > 300 °C (dec.).
To `CC(C)(C)NC(=O)n1cnc2c(-c3ccco3)nc(N)nc21` [Example 21, 2-Amino-N-tert-butyl-6-(2-furyl)-9H-purine-9-carboxamide] belongs 295 °C (dec.).
Regarding `Nc1nc(-c2ccco2)c2ncn(C(=O)Oc3ccccc3)c2n1` [Example 22, Phenyl 2-amino-6-(2-furyl)-9H-purine-9-carboxylate], the melting point was > 300 °C (dec.).
With `O=C(Nc1ccccc1)Nc1nc(-c2ccco2)c2nc[nH]c2n1` [Example 23, N-(6-(2-Furyl)-1H-purine-2-yl)-N'-phenylurea], the melting point is > 330 °C (dec.).
For `CCNC(=O)n1cnc2c(-c3ccco3)nc(N)nc21` [Example 24, 2-Amino-N-ethyl-6-(2-furyl)-9H-purine-9-carboxamide] the value was > 280 °C (dec.); for `CC(C)(C)c1ccc(S(=O)(=O)n2cnc3c(-c4ccco4)nc(N)nc32)cc1` [Example 27, 9-(4-tert-Butylphenylsulphonyl)-6-(2-furyl)-9H-purine-2-amine], 238.7 to 239.2 °C; for `Nc1nc(-c2ccco2)c2ncn(C(=O)C3CCCCC3)c2n1` [Example 28, 9-Cyclohexylcarbonyl-6-(2-furyl)-9H-purine-2-amine], > 300 °C (dec.).
For `Nc1nc(-c2ccco2)c2ncn(C(=O)N3CCCC3)c2n1` [Example 29, 6-(2-Furyl)-9-(1-pyrrolidinylcarbonyl)-9H-purine-2-amine] the value was > 300 °C (dec.); for `CC(C)NC(=O)n1cnc2c(-c3ccco3)nc(N)nc21` [Example 30, 2-Amino-6-(2-furyl)N-isopropyl-9H-purine-9-carboxamide], > 300 °C (dec.); for `O=C(NC1CCCCC1)n1cnc2c(-c3ccco3)nc(Cl)nc21` [Example 31, 2-Chloro-N-cyclohexyl-6-(2-furyl)-9H-purine-9-carboxamide], 177.4 to 177.8 °C.
For `CC(C)CC(=O)n1cnc2c(-c3ccco3)nc(N)nc21` [Example 33, 6-(2-Furyl)-9-(3-methylbutyryl)-9H-purine-2-amine] the value was 175.4 to 176.1 °C; for `CC(=O)n1cnc2c(-c3ccco3)nc(N)nc21` [Example 34, 9-Acetyl-6-(2-furyl)-9H-purine-2-amine], > 300 °C (dec.); for `Cc1ccc(S(=O)(=O)n2cnc3c(-c4ccco4)nc(N(C)C)nc32)cc1` [Example 56, N,N-Dimethyl-6-(2-furyl)-9-(4-methylphenylsulphonyl)-9H-purine-2-amine], 212.6 to 213 °C.
For `CCOC(=O)Cn1cnc2c(-c3ccco3)nc(N(C)C)nc21` [Example 71, Ethyl 2-dimethylamino-6-(2-furyl)-9H-purine-9-acetate], the melting point lay in the range of 180.6 to 181.8 °C.
To `CCOC(=O)Cn1cnc2c(-c3ccco3)nc(-c3ccco3)nc21` [Example 72, Ethyl 2,6-bis(2-furyl)-9H-purine-9-acetate] belongs 314 °C; to `Nc1nc(-c2ccco2)c2ncn(CC(=O)O)c2n1` [Example 73, 2-Amino-6-(2-furyl)-9H-purine-9-acetic acid], > 300 °C (dec.).
With `CC(C)(C)OC(=O)n1cnc2c(-c3cccs3)nc(N)nc21` [Example 78, tert-Butyl 2-amino-6-(2-thienyl)-9H-purine-9-carboxylate], the melting point was > 250 °C (dec.).
To `Nc1nc(-c2ccco2)c2ncn(CC(=O)Nc3ccccc3)c2n1` [Example 85, 2-Amino-6-(2-furyl)-N-phenyl-9H-purine-9-acetamide] belongs 289.1 to 289.7 °C.
For `Nc1nc(-c2ccco2)c2ncn(CC(=O)NCc3ccccc3)c2n1` [Example 86, 2-Amino-N-benzyl-6-(2-furyl)-9H-purine-9-acetamide] the value was 287.2 to 287.8 °C; for `NC(=O)Cn1cnc2c(-c3ccco3)nc(N)nc21` [Example 87, 2-Amino-6-(2-furyl)-9H-purine-9-acetamide], 321.5 to 321.6 °C; for `Nc1nc(-c2ccco2)c2ncn(CC(=O)N3CCCC3)c2n1` [Example 88, 6-(2-Furyl)-9-(2-oxo-2-(1-pyrrolidinyl)ethyl)-9H-purine-2-amine], 283.6 to 283.7 °C.
As for `CNC(=O)Cn1cnc2c(-c3ccco3)nc(N)nc21` [Example 89, 2-Amino-6-(2-furyl)-N-methyl-9H-purine-9-acetamide], the melting point lay within 290.2 to 291.6 °C.
Turning to `Cc1nc(-c2nc(N)nc3[nH]cnc23)no1` [Example 90, 6-(5-Methyl-[1,2,4]-oxadiazol-3-yl)-1H-purine-2-amine], the melting point is > 200 °C (dec.).
In the case of `Nc1nc(-c2ccco2)c2ncn(CC(=O)NCCO)c2n1` [Example 96, 2-Amino-6-(2-furyl)-N-(2-hydroxyethyl)-9H-purine-9-acetamide], the melting point was > 250 °C (dec.).
For `CN1CCN(C(=O)Cn2cnc3c(-c4ccco4)nc(N)nc32)CC1` [Example 97, 6-(2-Furyl)-9-(2-oxo-2-(4-methyl-1-piperazinyl)ethyl)-9H-purine-2-amine] the value was > 270 °C (dec.); for `Nc1nc(-c2ccco2)c2ncn(CC(=O)NCc3ccccn3)c2n1` [Example 119, 2-Amino-6-(2-furyl)-N-(2-pyridylmethyl)-9H-purine-9-acetamide], 238.3 to 238.4 °C.
For `Nc1nc(-c2cc3ccccc3o2)c2nc[nH]c2n1` [Example 120, 6-(Benzofuran-2-yl)-1H-purine-2-amine] the value was 310 to 310.3 °C.
To `Nc1nc(-c2ccco2)c2ncn(CC(=O)Nc3ccccn3)c2n1` [Example 122, 2-Amino-6-(2-furyl)-N-(2-pyridyl)-9H-purine-9-acetamide] belongs 242.5 to 243.6 °C.
`Nc1nc(-c2ccco2)c2ncn(CC(=O)NCCc3ccccc3)c2n1` [Example 123, 2-Amino-6-(2-furyl)-N-(2-phenylethyl)-9H-purine-9-acetamide] showed a melting point of 247.3 to 247.4 °C.
Regarding `CCCNC(=O)Cn1cnc2c(-c3ccco3)nc(N)nc21` [Example 124, 2-Amino-6-(2-furyl)-N-n-propyl-9H-purine-9-acetamide], the melting point was 258.7 to 260.1 °C.
With `Nc1nc(-c2cc3ccccc3o2)c2ncn(C(=O)NCc3ccccc3)c2n1` [Example 128, 2-Amino-6-(benzofuran-2-yl)-N-benzyl-9H-purine-9-carboxamide], the melting point is > 250 °C (dec.).
To `Nc1nc(-c2ccc(Cl)s2)c2ncn(C(=O)NCc3ccccc3)c2n1` [Example 130, 2-Amino-N-benzyl-6-(5-chloro-2-thienyl)-9H-purine-9-carboxamide] belongs 194 to 195 °C (dec.).
To `Cn1cccc1-c1nc(N)nc2[nH]cnc12` [Example 133, 6-(1-Methyl-1H-pyrrol-2-yl)-1H-purine-2-amine] belongs > 240 °C (dec.); to `Cn1cccc1-c1nc(N)nc2c1ncn2C(=O)NCc1ccccc1` [Example 134, 2-Amino-N-benzyl-6-(1-methyl-1H-pyrrol-2-yl)-9H-purine-9-carboxamide], > 230 °C (dec.).
To `Nc1nc(-c2cncs2)c2nc[nH]c2n1` [Example 137, 6-(5-Thiazolyl)-1H-purine-2-amine] belongs 300 °C (dec.); to `Cc1ccccc1NC(=O)Cn1cnc2c(-c3ccco3)nc(N)nc21` [Example 140, 2-Amino-6-(2-furyl)-N-(2-methylphenyl)-9H-purine-9-acetamide], 299.2 to 299.3 °C.
